Experimental data published in publication PMC6745501, “Plant photoreceptors and their signaling components compete for COP1 binding via VP peptide motifs” (The EMBO Journal, 2019).
Values joined by “and” are separate entries in the source; they are usually repeats but may differ in a detail not shown here. Identical values can stand only once. Blank lines part the entries; values can stand above or below the substance they belong to.

Experiments:
[1] = biological target: T1, Arabidopsis COP1^349–675 WD40 domain (Arabidopsis thaliana, UniProt P43254); assay: Isothermal titration calorimetry (ITC) versus the COP1 WD40 domain; format: binding; conditions: for N (stoichiometry of binding), VP peptide vs. COP1 WD40 domain (WT): peptide into COP1, 25°C, one-site binding model, ± standard deviation
T1 construct: His10-Twin-Strep with TEV site (N, cleaved yes); made in house; host or cells: Spodoptera frugiperda Sf9 insect cells (baculovirus, modified pFastBac)
T1 sequence (P43254 349-675): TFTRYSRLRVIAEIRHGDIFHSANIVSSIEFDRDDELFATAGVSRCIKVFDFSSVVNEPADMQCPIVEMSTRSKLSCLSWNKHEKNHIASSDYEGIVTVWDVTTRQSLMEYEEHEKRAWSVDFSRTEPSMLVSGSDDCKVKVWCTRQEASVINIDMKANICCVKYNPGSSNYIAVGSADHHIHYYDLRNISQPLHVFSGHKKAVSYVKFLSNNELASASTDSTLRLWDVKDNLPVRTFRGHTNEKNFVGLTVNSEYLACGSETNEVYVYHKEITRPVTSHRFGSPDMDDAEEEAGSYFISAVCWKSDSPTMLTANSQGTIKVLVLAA
Procedure: All experiments were performed in a buffer containing 150 mM NaCl, 20 mM HEPES 7.4, and 2 mM BME. Peptides were synthesized and delivered as lyophilized powder (Peptide Specialty Labs GmbH) and dissolved directly in buffer. The peptides were centrifuged at 14,000 × g for 10 min, and only the supernatant was used. […] Experiments were performed at 25°C and a stirring speed of 1,000 rpm on an ITC200 instrument (GE Healthcare). All data were processed using Origin 7.0 and fit to a one‐site binding model after background buffer subtraction.

[2] = biological target: T2, COP1^Lys422Ala WD40 domain (Arabidopsis thaliana, UniProt P43254, K422A); assay: biochemical; format: binding; conditions: for N (stoichiometry of binding), VP peptide vs. COP1^Lys422Ala: peptide into COP1^Lys422Ala, 25°C, ± standard deviation
T2 construct: His10-Twin-Strep with TEV site (N, cleaved yes); made in house; host or cells: Spodoptera frugiperda Sf9 insect cells (baculovirus, modified pFastBac)
Procedure: (§1) All experiments were performed in a buffer containing 150 mM NaCl, 20 mM HEPES 7.4, and 2 mM BME. […] The peptides were centrifuged at 14,000 × g for 10 min, and only the supernatant was used. The dissolved peptide concentrations were calculated based upon their absorbance at 280 nm and their corresponding molar extinction coefficient. […] Experiments were performed at 25°C and a stirring speed of 1,000 rpm on an ITC200 instrument (GE Healthcare). All data were processed using Origin 7.0 and fit to a one‐site binding model after background buffer subtraction.

[3] = biological target: T3, COP1^Tyr441Ala WD40 domain (Arabidopsis thaliana, UniProt P43254, Y441A); format: binding; conditions: ITC, peptide into COP1^Tyr441Ala, 25°C; ± standard deviation
T3 construct: His10-Twin-Strep with TEV site (N, cleaved yes); made in house; host or cells: Spodoptera frugiperda Sf9 insect cells (baculovirus, modified pFastBac)
Procedure: as §1

COP1 WD40 domain [4] = assay: Grating-coupled interferometry (GCI) binding kinetics versus the COP1 WD40 domain; set-up: species or system Arabidopsis; conditions: ligand COP1 (2000 pg/mm2), analyte in the absence of UV-B (ground state), highest concentration 2 μM, 1:1 binding model, read-out: Kd (dissociation constant), - UV-B
Procedure: For CRY2 activation, proteins were diluted to their final assay concentrations (as indicated in the figure legends) in Eppendorf tubes and exposed to 10 min of fluorescent light on ice.
The Creoptix WAVE system (Creoptix AG), a label‐free surface biosensor, was used to perform GCI experiments. All experiments were performed on 2PCH or 4PCH WAVEchips (quasi‐planar polycarboxylate surface; Creoptix AG). After a borate buffer conditioning (100 mM sodium borate pH 9.0, 1 M NaCl; Xantec), COP1 (ligand) was immobilized on the chip surface using standard amine‐coupling: 7 min activation [1:1 mix of 400 mM N‐(3‐dimethylaminopropyl)‐N′‐ethylcarbodiimide hydrochloride and 100 mM N‐hydroxysuccinimide (both Xantec)], injection of COP1 (10 μg/ml) in 10 mM sodium acetate pH 5.0 (Sigma) until the desired density was reached, and final quenching with 1 M ethanolamine pH 8.0 for 7 min (Xantec). […] Blank injections were used for double referencing and a dimethyl sulfoxide (DMSO) calibration curve for bulk correction. Analysis and correction of the obtained data were performed using the Creoptix WAVEcontrol software (applied corrections: X and Y offset; DMSO calibration; double referencing), and a one‐to‐one binding model or a heterogenous ligand model with bulk correction was used to fit all experiments.

COP1 WD40 domain [5] = assay: Analytical size-exclusion chromatography binding assay; set-up: species or system Arabidopsis; conditions: Superdex 200 Increase 10/300 GL, ~4 μM per protein
Procedure: 500 μl of the respective protein solution or a mixture (~ 4 μM per protein) was loaded sequentially onto the column, and elution at 0.75 ml/min was monitored by UV absorbance at 280 nm.

T2 sequence (P43254 349-675 K422A): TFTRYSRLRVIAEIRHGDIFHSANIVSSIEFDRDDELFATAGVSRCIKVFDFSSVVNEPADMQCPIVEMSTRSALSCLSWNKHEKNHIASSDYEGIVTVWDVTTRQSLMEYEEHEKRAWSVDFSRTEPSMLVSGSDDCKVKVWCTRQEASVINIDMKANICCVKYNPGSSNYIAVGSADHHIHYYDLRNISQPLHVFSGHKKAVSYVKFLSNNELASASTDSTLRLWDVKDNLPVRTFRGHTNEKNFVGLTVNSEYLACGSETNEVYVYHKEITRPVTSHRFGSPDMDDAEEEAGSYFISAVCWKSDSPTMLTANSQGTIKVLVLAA
T3 sequence (P43254 349-675 Y441A): as the sequence (P43254 349-675 K422A) above, with A74K, Y93A counted along it

Substance: Ac-EDQMVPSITY-NH2 [CRY1 peptide]
N (stoichiometry of binding), VP peptide vs. COP1 WD40 domain (WT) ([1]; ITC): 0.99 ± 0.3
N (stoichiometry of binding), VP peptide vs. COP1^Lys422Ala ([2]; ITC): 0.98 ± 0.1

Substance: Ac-EIRRVPEFGGY-NH2 [HY5 peptide]
Kd [1]: 23 ± 7 µM
Times stronger binding to COP1 than UVR8^406–413 ([1]; ITC, ratio of Kd values): ~ 8
Kd [2]: 23 ± 10 µM
N (stoichiometry of binding), VP peptide vs. COP1^Lys422Ala ([2]; ITC): 0.83 ± 0.2
N (stoichiometry of binding), VP peptide vs. COP1^Tyr441Ala [3]: 0.92 ± 0.3

Substance: Ac-GFGVVPSFY-NH2 [COL3 peptide]
N (stoichiometry of binding), VP peptide vs. COP1 WD40 domain (WT) ([1]; ITC): 0.75 ± 0.2
N (stoichiometry of binding), VP peptide vs. COP1^Lys422Ala ([2]; ITC): 0.90 ± 0.2

Substance: Ac-GYGIVPSFY-NH2 [CO peptide]
N (stoichiometry of binding), VP peptide vs. COP1 WD40 domain (WT) ([1]; ITC): 1.03 ± 0.00
Kd [2]: 21 ± 10 µM
N (stoichiometry of binding), VP peptide vs. COP1^Lys422Ala ([2]; ITC): 0.89 ± 0.03
Fold increase of binding affinity for COP1^Lys422Ala compared with wild type COP1 ([2]; ITC, ratio of Kd values): ~ 4

Substance: Ac-NDQQVPSAVY-NH2 [CRY2 peptide]
Kd [1]: 21 ± 2 µM
N (stoichiometry of binding), VP peptide vs. COP1 WD40 domain (WT) ([1]; ITC): 1.04 ± 0.20
Times reduction of binding by the COP1^Lys422Ala mutation compared with wild type COP1 ([2]; ITC, ratio of Kd values): ~ 30

Substance: Ac-RYAVVPDE-NH2 [UVR8 peptide]
N (stoichiometry of binding), VP peptide vs. COP1^Lys422Ala ([2]; ITC): 0.87 ± 0.2
Fold increase of binding affinity for COP1^Lys422Ala compared with wild type COP1 ([2]; ITC, ratio of Kd values): ~ 10

Kd (COP1 WD40 domain [4]): ~1 µM and 1.3 µM
Interaction with the COP1 WD40 domain in size-exclusion chromatography, UV-B-activated (COP1 WD40 domain [5]; 150 mM NaCl, 20 mM HEPES 7.4, 2 mM BME, protein pre-monomerized by UV-B): interact
Interaction with the COP1 WD40 domain in size-exclusion chromatography, non-activated (COP1 WD40 domain [5]; absence of UV-B (dimer)): no interaction
Substance: UVR8: recombinant full-length Arabidopsis UV-B photoreceptor UVR8 expressed in insect cells
